Values after ≈ are worked out from the molar mass of the structure shown.
Tests used:
[1] = target: Phosphatidylinositol 4,5-bisphosphate 3-kinase catalytic subunit beta isoform (Homo sapiens, UniProt P42338); test: Inhibition of recombinant human N-terminal Myr signal and C-terminal Flag-tagged PI3K p110beta expressed in rat Rat1 cells; type: cell-based
[2] = Apparent intrinsic clearance in human liver microsomes; type: ADME, Microsome; details: read-out: CLH(app)
PI3K p110 beta/p85 alpha = PI3K p110 beta/p85 alpha (Homo sapiens, UniProt P42338); test: Inhibition of recombinant human PI3K p110beta/p85alpha using phosphatidylinositol 4,5-bisphosphate as substrate preincubated for 15 mins followed by addition of ATP and measured after 30 mins by fluorescence polarisation assay; type: protein-complex assay
PI3K p110 beta/p85 alpha, sequence (P27986 whole entry): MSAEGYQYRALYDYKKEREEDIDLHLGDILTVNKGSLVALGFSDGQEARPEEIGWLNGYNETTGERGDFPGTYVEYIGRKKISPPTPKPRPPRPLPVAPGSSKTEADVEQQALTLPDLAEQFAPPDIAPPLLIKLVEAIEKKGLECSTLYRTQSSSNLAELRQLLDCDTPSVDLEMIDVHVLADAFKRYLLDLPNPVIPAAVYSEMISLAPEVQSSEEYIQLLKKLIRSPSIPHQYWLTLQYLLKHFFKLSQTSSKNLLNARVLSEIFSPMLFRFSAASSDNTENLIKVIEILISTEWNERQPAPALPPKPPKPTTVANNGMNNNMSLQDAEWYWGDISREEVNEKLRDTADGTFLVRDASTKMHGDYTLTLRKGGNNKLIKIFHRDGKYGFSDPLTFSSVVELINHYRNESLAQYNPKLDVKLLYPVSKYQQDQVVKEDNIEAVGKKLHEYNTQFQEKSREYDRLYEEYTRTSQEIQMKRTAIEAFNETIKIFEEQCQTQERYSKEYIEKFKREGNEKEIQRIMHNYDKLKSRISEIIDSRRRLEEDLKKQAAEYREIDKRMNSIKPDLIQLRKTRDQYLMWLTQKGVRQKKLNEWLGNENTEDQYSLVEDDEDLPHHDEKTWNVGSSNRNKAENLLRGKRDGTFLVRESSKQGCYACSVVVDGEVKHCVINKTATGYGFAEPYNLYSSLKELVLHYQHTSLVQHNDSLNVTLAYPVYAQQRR
PI3K p110 beta/p85 alpha, sequence (P42338 whole entry): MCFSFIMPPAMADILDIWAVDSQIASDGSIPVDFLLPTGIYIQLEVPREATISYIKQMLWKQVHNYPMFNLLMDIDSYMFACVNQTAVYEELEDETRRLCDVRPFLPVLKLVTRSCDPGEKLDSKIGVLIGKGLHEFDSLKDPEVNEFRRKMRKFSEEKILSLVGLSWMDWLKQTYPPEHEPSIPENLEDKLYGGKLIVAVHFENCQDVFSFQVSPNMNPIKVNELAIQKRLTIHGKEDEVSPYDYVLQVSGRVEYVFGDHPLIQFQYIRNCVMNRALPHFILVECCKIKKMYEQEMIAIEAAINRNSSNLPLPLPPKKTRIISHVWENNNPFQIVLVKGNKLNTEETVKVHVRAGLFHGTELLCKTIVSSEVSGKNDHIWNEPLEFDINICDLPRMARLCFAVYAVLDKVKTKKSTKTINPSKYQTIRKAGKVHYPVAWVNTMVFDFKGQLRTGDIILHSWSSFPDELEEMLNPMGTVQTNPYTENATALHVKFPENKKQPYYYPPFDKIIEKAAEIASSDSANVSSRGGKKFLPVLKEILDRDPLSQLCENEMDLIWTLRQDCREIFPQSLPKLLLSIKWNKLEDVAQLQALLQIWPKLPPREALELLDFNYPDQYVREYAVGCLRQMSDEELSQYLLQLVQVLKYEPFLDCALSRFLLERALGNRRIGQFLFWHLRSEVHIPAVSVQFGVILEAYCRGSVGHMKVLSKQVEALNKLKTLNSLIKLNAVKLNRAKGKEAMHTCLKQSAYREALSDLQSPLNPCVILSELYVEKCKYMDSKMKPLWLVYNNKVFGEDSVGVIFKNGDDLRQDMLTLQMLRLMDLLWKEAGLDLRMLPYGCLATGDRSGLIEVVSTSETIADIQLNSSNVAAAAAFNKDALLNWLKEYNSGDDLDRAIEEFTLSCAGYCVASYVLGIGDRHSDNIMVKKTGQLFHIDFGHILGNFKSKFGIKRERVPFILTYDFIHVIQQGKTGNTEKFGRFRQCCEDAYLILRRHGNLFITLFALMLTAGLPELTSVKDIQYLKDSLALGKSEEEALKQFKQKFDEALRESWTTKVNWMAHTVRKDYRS

[3] = target: PI3-kinase p110-delta/p85-alpha (Homo sapiens, UniProt O00329); test: Inhibition of recombinant human PI3K p110delta/p85alpha using phosphatidylinositol 4,5-bisphosphate as substrate preincubated for 15 mins followed by addition of ATP and measured after 30 mins by fluorescence polarisation assay; type: protein-complex assay
PI3-kinase p110-delta/p85-alpha, sequence (P27986 whole entry, one chain of several, canonical isoform): as the sequence (P27986 whole entry) above

[4] = target: Phosphatidylinositol 4,5-bisphosphate 3-kinase catalytic subunit alpha isoform (Homo sapiens, UniProt P42336); test: Inhibition of recombinant human N-terminal Myr signal and C-terminal Flag-tagged PI3K p110alpha expressed in rat Rat1 cells; type: cell-based
Phosphatidylinositol 4,5-bisphosphate 3-kinase catalytic subunit alpha isoform, sequence (P42336 whole entry, canonical isoform): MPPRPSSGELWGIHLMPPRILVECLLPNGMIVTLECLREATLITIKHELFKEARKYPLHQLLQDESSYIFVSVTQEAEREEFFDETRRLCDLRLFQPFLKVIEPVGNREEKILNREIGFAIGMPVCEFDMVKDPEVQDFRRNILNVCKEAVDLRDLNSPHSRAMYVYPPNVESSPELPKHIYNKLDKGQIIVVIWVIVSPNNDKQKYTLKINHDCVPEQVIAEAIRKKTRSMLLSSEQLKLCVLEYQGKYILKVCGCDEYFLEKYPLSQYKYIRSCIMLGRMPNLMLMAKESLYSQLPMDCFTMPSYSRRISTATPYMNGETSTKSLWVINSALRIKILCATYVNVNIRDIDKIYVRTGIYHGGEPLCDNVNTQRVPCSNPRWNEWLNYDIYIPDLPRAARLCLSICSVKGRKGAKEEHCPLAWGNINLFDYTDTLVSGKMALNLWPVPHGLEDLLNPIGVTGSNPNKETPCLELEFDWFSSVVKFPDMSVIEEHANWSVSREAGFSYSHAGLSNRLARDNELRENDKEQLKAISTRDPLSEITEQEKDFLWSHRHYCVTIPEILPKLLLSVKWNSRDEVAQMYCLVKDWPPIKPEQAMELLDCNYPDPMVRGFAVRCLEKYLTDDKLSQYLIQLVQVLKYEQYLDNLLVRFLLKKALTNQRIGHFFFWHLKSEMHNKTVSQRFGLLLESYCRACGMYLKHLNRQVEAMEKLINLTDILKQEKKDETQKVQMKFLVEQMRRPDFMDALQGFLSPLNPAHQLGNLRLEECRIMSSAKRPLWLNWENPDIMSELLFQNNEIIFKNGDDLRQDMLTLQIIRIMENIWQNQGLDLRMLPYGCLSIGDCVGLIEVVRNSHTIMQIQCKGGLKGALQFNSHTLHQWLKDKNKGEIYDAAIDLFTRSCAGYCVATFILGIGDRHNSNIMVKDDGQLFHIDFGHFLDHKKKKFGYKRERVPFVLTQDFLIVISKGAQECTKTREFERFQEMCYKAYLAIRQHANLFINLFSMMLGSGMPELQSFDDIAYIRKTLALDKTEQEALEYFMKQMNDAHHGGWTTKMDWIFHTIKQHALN

[5] = Distribution coefficient, logD of compound at pH 7.4; type: physicochemical; details: octanol/water
[6] = target: T1, Phosphatidylinositol 4,5-bisphosphate 3-kinase catalytic subunit delta isoform (Homo sapiens, UniProt O00329); test: Inhibition of recombinant human N-terminal Myr signal and C-terminal Flag-tagged PI3K p110delta expressed in rat Rat1 cells; type: cell-based
T1 sequence (O00329 whole entry): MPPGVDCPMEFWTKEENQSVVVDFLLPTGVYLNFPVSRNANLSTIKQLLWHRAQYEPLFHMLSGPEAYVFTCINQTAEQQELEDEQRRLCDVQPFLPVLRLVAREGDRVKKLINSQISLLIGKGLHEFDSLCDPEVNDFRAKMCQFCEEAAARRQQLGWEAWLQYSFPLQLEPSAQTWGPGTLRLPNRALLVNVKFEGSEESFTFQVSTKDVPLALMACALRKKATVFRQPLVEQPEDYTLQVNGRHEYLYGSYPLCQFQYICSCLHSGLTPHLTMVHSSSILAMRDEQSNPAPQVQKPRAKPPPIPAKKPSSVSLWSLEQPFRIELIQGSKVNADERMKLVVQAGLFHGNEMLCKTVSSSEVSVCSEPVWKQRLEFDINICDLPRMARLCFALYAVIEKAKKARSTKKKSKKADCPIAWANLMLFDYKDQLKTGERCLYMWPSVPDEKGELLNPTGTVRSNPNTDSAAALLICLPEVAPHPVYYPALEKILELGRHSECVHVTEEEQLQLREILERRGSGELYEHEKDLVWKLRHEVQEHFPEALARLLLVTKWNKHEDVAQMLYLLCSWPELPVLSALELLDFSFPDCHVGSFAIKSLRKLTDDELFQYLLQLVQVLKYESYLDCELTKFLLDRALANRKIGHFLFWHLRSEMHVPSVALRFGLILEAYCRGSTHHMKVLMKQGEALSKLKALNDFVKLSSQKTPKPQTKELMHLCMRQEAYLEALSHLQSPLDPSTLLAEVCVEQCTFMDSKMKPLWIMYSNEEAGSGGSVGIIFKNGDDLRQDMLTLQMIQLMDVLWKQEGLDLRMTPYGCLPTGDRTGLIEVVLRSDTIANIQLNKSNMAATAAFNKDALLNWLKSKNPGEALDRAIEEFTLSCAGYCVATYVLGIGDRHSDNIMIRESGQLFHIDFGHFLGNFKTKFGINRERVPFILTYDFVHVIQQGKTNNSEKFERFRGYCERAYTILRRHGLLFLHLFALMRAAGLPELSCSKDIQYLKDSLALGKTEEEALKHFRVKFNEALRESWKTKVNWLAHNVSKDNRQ

[7] = Passive permeability of compound in RRCK cells; type: ADME, cell-based, Canis lupus familiaris, MDCKII-LE; details: dog, MDCK; read-out: permeability
[8] = target: PI3-kinase p110-alpha/p85-alpha (Homo sapiens, UniProt P42336); test: Inhibition of recombinant human full-length PI3K p110alpha/p85alpha (322 to 600) expressed in baculovirus infected Sf21 cells using phosphatidylinositol 4,5-bisphosphate as substrate preincubated for 15 mins followed by addition of ATP and measured after 30 mins by fluorescence polarisation assay
PI3-kinase p110-alpha/p85-alpha, sequence (P27986 whole entry): as the sequence (P27986 whole entry) above
PI3-kinase p110-alpha/p85-alpha, sequence (P42336 whole entry): as the sequence (P42336 whole entry, canonical isoform) above

[9] = Kinetic solubility of compound; type: physicochemical; details: read-out: Kinetic_solubility
Rat1 [10] = test: Selectivity index, ratio of IC50 for recombinant human N-terminal Myr signal and C-terminal Flag-tagged PI3K p110delta to IC50 for recombinant human N-terminal Myr signal and C-terminal Flag-tagged PI3K p110alpha expressed in rat Rat1 cells; type: cell-based
Rat1 [11] = test: Selectivity index, ratio of IC50 for recombinant human N-terminal Myr signal and C-terminal Flag-tagged PI3K p110beta to IC50 for recombinant human N-terminal Myr signal and C-terminal Flag-tagged PI3K p110alpha expressed in rat Rat1 cells; type: cell-based
Homo sapiens [12] = species: Homo sapiens; test: Selectivity index, ratio of Ki for recombinant human PI3K p110delta/p85alpha to Ki for recombinant human full-length PI3K p110alpha/p85alpha (322 to 600) using phosphatidylinositol 4,5-bisphosphate as substrate
Homo sapiens [13] = species: Homo sapiens; test: Selectivity index, ratio of Ki for recombinant human PI3K p110beta/p85alpha to Ki for recombinant human full-length PI3K p110alpha/p85alpha (322 to 600) using phosphatidylinositol 4,5-bisphosphate as substrate

Phosphatidylinositol 4,5-bisphosphate 3-kinase catalytic subunit beta isoform, sequence (P42338 whole entry, canonical isoform): as the sequence (P42338 whole entry) above

| IC50 [1] [nM] | IC50 [6] [nM] | Ki [8] [nM] | solubility kinetic [9] [µM] | SMILES | microsomal CLint [2] [µL/min/mg] | Ki (PI3K p110 beta/p85 alpha) [nM] | Ki [3] [nM] | IC50 [4] [nM] | logD [5] | Papp [7] [×10⁻⁶ cm/s] | Ratio IC50 (Rat1 [10]) | Ratio IC50 (Rat1 [11]) | Ratio Ki (Homo sapiens [12]) | Ratio Ki (Homo sapiens [13]) |
| --- | --- | --- | --- | --- | --- | --- | --- | --- | --- | --- | --- | --- | --- | --- |
|  |  | 2.1 | 430 (≈ 158 µg/mL) | Nc1ncc(-c2nc(N3CCOCC3)nc3c2CCN3[C@H]2CCNC2)cn1 | 13 | 17 | 40 |  | -0.74 | 1.9 |  |  |  |  |
| 4600 | 1200 |  | 460 (≈ 217 µg/mL) | CC(C)(C)OC(=O)N1CC[C@](CO)(Nc2cc(-c3cnc(N)nc3)nc(N3CCOCC3)n2)C1 | 140 | 54 | 2.1 |  | 2.7 | 18 |  |  |  |  |
| 150 | 76 | < 0.029 | 540 (≈ 249 µg/mL) | C[C@]1(N2CCc3c(-c4cnc(N)nc4)nc(N4CCOCC4)nc32)CCN(S(C)(=O)=O)C1 | 36 | 9.1 | 0.26 | 34 | 1.6 | 26 |  |  |  |  |
| 170 | 44 | < 0.018 | 510 (≈ 243 µg/mL) | CNS(=O)(=O)N1CC[C@](C)(N2CCc3c(-c4cnc(N)nc4)nc(N4CCOCC4)nc32)C1 | 20 | 4.9 | < 0.28 | 27 | 1.9 | 24 |  |  |  |  |
| > 10000 | > 10000 |  | 540 (≈ 239 µg/mL) | CC(C)C(=O)N1CC[C@](CO)(Nc2cc(-c3cnc(N)nc3)nc(N3CCOCC3)n2)C1 | 17 | 19 | < 0.28 |  | 1.4 | 0.19 |  |  |  |  |
| 410 | 110 | 0.084 | 460 (≈ 202 µg/mL) | CNC(=O)N1CC[C@](C)(N2CCc3c(-c4cnc(N)nc4)nc(N4CCOCC4)nc32)C1 | < 11 | 24 | 0.72 | 73 | 1.7 | 13 |  |  |  |  |
| 260 | 17 | < 0.018 | 500 (≈ 226 µg/mL) | CC(C)C(=O)N1CC[C@](C)(N2CCc3c(-c4cnc(N)nc4)nc(N4CCOCC4)nc32)C1 | 46 | 17 | < 0.28 | 6.9 | 2.4 | 36 | 3 | 37 |  |  |
|  |  | 0.58 | 390 (≈ 166 µg/mL) | CNC(=O)N1CC[C@H](N2CCc3c(-c4cnc(N)nc4)nc(N4CCOCC4)nc32)C1 | < 8 | 24 | 3.7 |  | 1.3 | 6.1 |  |  |  |  |
| 360 | 300 | < 0.018 | 42 (≈ 18.8 µg/mL) | COC(=O)N1CC[C@](CO)(Nc2nc(N3CCOCC3)nc(-c3cnc(N)nc3)c2F)C1 | < 8 | 5 | < 0.28 | 47 | 1.6 | 6.2 |  |  |  |  |
| 45 | 13 | < 0.023 | 490 (≈ 216 µg/mL) | COC(=O)N1CC[C@](C)(N2CCc3c(-c4cnc(N)nc4)nc(N4CCOCC4)nc32)C1 | 29 | 0.79 | < 0.28 | 5 | 2.6 | 27 |  |  |  |  |
|  |  |  | 210 (≈ 54.2 µg/mL) | Nc1ncc(-c2ccnc(N3CCOCC3)n2)cn1 |  | 15 | 81 |  | 1.5 | 28 |  |  |  |  |

| SMILES | IC50 [1] [nM] | IC50 [6] [nM] | Ki [8] [nM] | solubility kinetic [9] [µM] | microsomal CLint [2] [µL/min/mg] | Ki (PI3K p110 beta/p85 alpha) [nM] | Ki [3] [nM] | IC50 [4] [nM] | logD [5] | Papp [7] [×10⁻⁶ cm/s] | Ratio IC50 (Rat1 [10]) | Ratio IC50 (Rat1 [11]) | Ratio Ki (Homo sapiens [12]) | Ratio Ki (Homo sapiens [13]) |
| --- | --- | --- | --- | --- | --- | --- | --- | --- | --- | --- | --- | --- | --- | --- |
| CS(=O)(=O)N1CC[C@](CO)(Nc2cc(-c3cnc(N)nc3)nc(N3CCOCC3)n2)C1 | > 10000 | > 10000 |  |  | < 8 | 11 | < 0.28 | 1300 | 0.79 | 0.22 |  |  |  |  |
| CC(C)(C)OC(=O)N1CC[C@](C)(Nc2cc(-c3cnc(N)nc3)nc(N3CCOCC3)n2)C1 | 5000 | 460 |  | 270 (≈ 123 µg/mL) | 110 | 68 | 5.1 | 110 | 3.8 | 11 |  |  |  |  |
| CC(=O)N1CC[C@@](C)(N2CCc3c(-c4cnc(N)nc4)nc(N4CCOCC4)nc32)C1 | 95 | 74 | 0.078 | 520 (≈ 221 µg/mL) | < 8 | 6.7 | 1.2 | 35 | 1.6 | 16 |  |  |  |  |
| Nc1ncc(-c2cc(N[C@@]3(CO)CCN(C(=O)OCC(F)F)C3)nc(N3CCOCC3)n2)cn1 | 1900 | 1000 |  | 9.9 (≈ 4.76 µg/mL) | 17 | 4 | < 0.28 | 52 | 1.7 | 3.9 |  |  |  |  |
| CC(=O)N1CC[C@H](N2CCc3c(-c4cnc(N)nc4)nc(N4CCOCC4)nc32)C1 |  |  |  | 530 (≈ 218 µg/mL) | < 8 | 20 | 22 |  | 1.1 | 13 |  |  | 19 | 17 |
| CC(C)(O)C(=O)N1CC[C@](C)(N2CCc3c(-c4cnc(N)nc4)nc(N4CCOCC4)nc32)C1 | 1000 | 150 | 0.03 | 460 (≈ 216 µg/mL) | 16 | 46 | 6.7 | 53 | 2 | 25 |  |  |  |  |
| COC(=O)N1CC[C@H](N2CCc3c(-c4cnc(N)nc4)nc(N4CCOCC4)nc32)C1 |  |  |  | 56 (≈ 23.9 µg/mL) | < 8 | 36 | 9.6 |  | 1.9 | 20 |  |  |  |  |
| COC(=O)N1CC[C@](CO)(Nc2cc(-c3cnc(N)nc3)nc(N3CCOCC3)n2)C1 | 1800 | 2300 |  | 19 (≈ 8.18 µg/mL) | 13 | 1.7 | < 0.28 | 91 | 1.5 | 1 |  |  |  |  |
| CC(C)(N)C(=O)N1CC[C@](C)(N2CCc3c(-c4cnc(N)nc4)nc(N4CCOCC4)nc32)C1 | 330 | 120 | 0.023 | 460 (≈ 215 µg/mL) | < 9 | 13 | 2.5 | 25 | 0.4 | 4.2 | 5 | 13 |  |  |
| CS(=O)(=O)N1CC[C@H](N2CCc3c(-c4cnc(N)nc4)nc(N4CCOCC4)nc32)C1 |  |  | 0.15 | 61 (≈ 27.2 µg/mL) | < 8 | 16 | 4.5 |  | 1.3 | 18 |  |  |  |  |
| CNS(=O)(=O)N1CC[C@H](N2CCc3c(-c4cnc(N)nc4)nc(N4CCOCC4)nc32)C1 |  |  | 0.12 | 380 (≈ 175 µg/mL) | < 11 | 16 | 4.5 | 130 | 1.4 | 16 |  |  | 37 | 125 |
